In US8685934B2, “Methods for treating extreme insulin resistance in patients resistant to previous treatment with other anti-diabetic drugs employing an SGLT2 inhibitor and compositions thereof” (Bristol-Myers Squibb Company, priority 2009, dated 2014):
Where two headings read alike, the source gives them in different places.

Columns and labels:
[1] = test system: highly insulin-resistant T2DM patients poorly controlled with insulin plus metformin and/or thiazolidinediones; conditions: for Patients who required up-titration of insulin: throughout the 12-week double-blind period, placebo arm 4 patients; for Patients exposed to study medication for ≧84 days prior to insulin up-titration: versus 39.1% in the placebo arm
Description: Criteria for management of hyperglycemia were determined by fasting plasma glucose (FPG) measurements. For any FPG level >240 mg/dL at weeks 4 and 6, >220 mg/dL at week 8, or >200 mg/dL at week 10, the patient would be scheduled for a follow-up visit in 3 to 5 days. If FPG was still above the threshold at follow-up, a visit was scheduled in order to increase the insulin dose as clinically indicated. Patients who further lacked glycemic control despite up-titration, or whose modified insulin dose exceeded baseline, were discontinued from blinded treatment and entered into follow-up.
All patients were on insulin-sensitizer therapy for at least 6 weeks prior to enrollment and insulin-based therapy for at least 12 weeks prior to enrollment. The study protocol defined insulin-sensitizer therapy as metformin (stable dose ≧1000 mg) and/or pioglitazone (stable dose ≧30 mg) or rosiglitazone (stable dose 4 mg). Insulin-based therapy was defined as subcutaneous insulin for at least 12 weeks prior to enrollment, with 2 minimum insulin daily dose equivalent to 50 units (median 85 to 93 units across all study arms) of U100 insulin per day. The insulin regimen must have been stable for at least 6 weeks. In addition to 10 mg dapagliflozin or 20 mg dapagliflozin daily or placebo, 74.6% of patients received metformin (≧1000 mg daily) plus insulin; 16.9% of patients received metformin (≧1000 mg daily) plus pioglitazone (≧30 mg daily) or rosiglitazone (4 mg daily) plus insulin and 8.5% of patients received pioglitazone (≧30 mg daily) or rosiglitazone (4 mg daily) plus insulin.
Patients in Cohort 1 were evaluated for safety only. Patients in Cohort 2 were evaluated for safety and efficacy. The primary efficacy measure was change from baseline in HbAlc, at week 12, last observation carried forward (LOCF). If no week 12 assessment was available, the last observation prior to week 12 was used. Secondary efficacy measures included changes from baseline at week 12 (LOCF) in FPG and insulin dose, the proportion of patients achieving a decrease in HbAlc>0.5% from baseline at week 12 (LOCF), and the proportion of patients achieving HbAlc<7% at week 12 (LOCF). Tertiary endpoints included changes from baseline in total body weight and in postprandial glucose (PPG) measured by an oral glucose tolerance test (OGTT).
Patients in Cohort 2 were evaluated for safety and efficacy. The primary efficacy measure was change from baseline in HbAlc at week 12, last observation carried forward (LOCF). The analysis was done excluding data after up-titration of insulin. If no week 12 assessment was available, the last observation prior to week 12 was used.
For Cohort 2, the sample size target of 22 patients per treatment group was chosen to allow for the calculation of 95% confidence intervals for the primary endpoint with a half-width of 0.42% for each treatment group. This assumed a 1% standard deviation for the primary endpoint in each of the dapagliflozin and placebo arms. With the same assumption, the half-width of a 95% confidence interval for the difference between any two treatment mean changes was estimated to be 0.59%. The primary efficacy data set consisted of all randomized patients who took at least one dose of double-blind study medication during the treatment phase. The analyses of the efficacy variables (except change from baseline in insulin dose) were done excluding data after up-titration of insulin. The analyses for changes from baseline in HbAlc, FPG, insulin dose, and total body weight at week 12 (LOCF) were performed using an analysis of covariance (ANCOVA) model with treatment group as an effect and baseline value as a covariate. Point estimates and 95% confidence intervals were calculated for mean changes within each treatment group and for differences in mean changes between the dapagliflozin and placebo groups.

[2] = test system: highly insulin-resistant T2DM patients poorly controlled with insulin plus metformin and/or thiazolidinediones; conditions: for 24-hour urinary glucose, increase / Standing diastolic blood pressure, mean change / Standing systolic blood pressure, mean change / Serum hematocrit, median increase from baseline / Urinary glucose excretion, mean change from baseline: week 12; for Glomerular filtration rate, change compared to baseline: end of treatment; for Urinary glucose excretion, mean change from baseline: placebo −1.5
Description: (§1) This was a randomized, single- and double-blind, three-arm parallel group, placebo-controlled trial to determine if dapagliflozin effectively lowers hyperglycemia in highly insulin-resistant T2DM patients poorly controlled with insulin plus metformin and/or thiazolidinediones. The trial consisted of a qualification period of 10 to 21 days, a treatment phase of 12 weeks, and a follow-up phase of 4 weeks. During qualification and until day 1, patients maintained their stable dose of open-label OADs, as well as their stable dose of prescribed insulin.
(§2) The treatment phase utilized an adaptive trial design with two cohorts: Cohort 1, the insulin dose-setting group; and Cohort 2, the main experimental group. The purpose of Cohort 1 was to determine the ideal starting dose of insulin least likely to cause hypoglycemia when dapagliflozin would be added. In Cohort 1, four patients were assigned to 20 mg single-blind dapagliflozin on day 1 after having their insulin dose decreased by 50%, the greatest decrement possible in this adaptive design. These patients underwent 48-hour continuous blood glucose monitoring (CGM) during the first week of treatment. Pursuant to the protocol, if at least one patient recorded a CGM value ≦100 mg/dL, confirmed by self-monitoring of blood glucose (SMBG), the total daily insulin dose for patients in Cohort 2 would be set at 50% of their usual dose that is, at an average of 52 to 54 units of insulin daily, and lesser dose reductions of insulin would not be tested. […] Patients in Cohort 2 were randomized on day 1 in a 1:1:1 ratio to double-blind placebo, 10 mg dapagliflozin or 20 mg dapagliflozin once daily, in addition to their open-label OAD(s) and 50% of their usual daily insulin, that is an average of 52 to 54 units of insulin daily.
(§3) Safety outcomes were assessed by treatment-emergent adverse events, vital signs, ECGs and laboratory measurements, including 24-hour urine collections for volume and electrolytes.

[3] = test system: highly insulin-resistant T2DM patients poorly controlled with insulin plus metformin and/or thiazolidinediones; conditions: for Adverse events, % of patients: placebo 65.2%; for Patients with genital tract infections: double-blind period, placebo one; for Events of pollakiuria, patients: placebo four patients; for Patients who reported episodes of hypoglycemia: placebo three patients
Description: as §1, §2
Patients were scheduled for visits at weeks 1, 2, 4, 6, 8, 10, and 12 of treatment, and performed SMBG 5 times daily during the 3 to 5 days prior to visits. No dose modifications of blinded study medication or OAD(s) were allowed during the treatment phase. Guidelines were in place throughout the trial for managing hypo- and hyperglycemia. […] Additional down-titration could be implemented as clinically indicated to manage the risk of hypoglycemia.
as §3

## CCOc1ccc(Cc2cc([C@@H]3O[C@H](CO)[C@@H](O)[C@H](O)[C@H]3O)ccc2Cl)cc1 [Dapagliflozin, (2S,3R,4R,5S,6R)-2-(4-chloro-3-(4-ethoxybenzyl)phenyl)-6-(hydroxymethyl)tetrahydro-2H-pyran-3,4,5-triol]
[1]; Dapagliflozin 20 mg + insulin + OAD, week 12 LOCF, of 23 patients, excludes data after insulin up-titration
  Patients with ↓ HbA1c ≧ 0.5%, No., response: 15
[1]; Dapagliflozin 20 mg once daily + insulin (50% of usual dose) + OAD, Cohort 2, excludes data after insulin up-titration
  HbA1c, mean (SD), End of Double-blind (Week 12 LOCF): 7.8 (0.6) %
[1]; dapagliflozin 10 mg arm (n = 24)
  Patients who required up-titration of insulin: 1 patient
[1]; dapagliflozin 10 mg arm
  Patients exposed to study medication for ≧84 days prior to insulin up-titration: 66.7%
[1]; dapagliflozin 20 mg arm (n = 24)
  Patients who required up-titration of insulin: 3 patients
[1]; dapagliflozin 20 mg arm
  Patients exposed to study medication for ≧84 days prior to insulin up-titration: 66.7%
[1]; dapagliflozin treatment (dose not distinguished), insulin dose reduced by 50%
  Additional weight loss compared to placebo: -2.5 kg
[1]; insulin-resistant patients who had their baseline insulin reduced 50%
  HbAlc, PPG and weight versus placebo, in words: decreased HbAlc, PPG and weight more than placebo
[1]; week 12 (LOCF)
  Weight lowering versus placebo, in words: more likely to lower weight than placebo
[2]; 10 mg dapagliflozin
  24-hour urinary glucose, increase: ~85 grams per day
  Standing diastolic blood pressure, mean change: −1.2 mm Hg
  Standing systolic blood pressure, mean change: −7.2 mm Hg
[2]; 20 mg dapagliflozin
  Supine diastolic blood pressure, mean change: −5.8 mm Hg
  Supine systolic blood pressure, mean change: −5.5 mm Hg
  24-hour urinary glucose, increase: ~85 grams per day
  Standing diastolic blood pressure, mean change: −3.9 mm Hg
  Standing systolic blood pressure, mean change: −6.1 mm Hg
[2]; dapagliflozin 10 mg
  Serum uric acid, median change from baseline: -0.30 mg/dL
  Glomerular filtration rate, change compared to baseline: −0.84 mL/min/1.73 m^2
  Serum hematocrit, median increase from baseline: 2.5%
  Urinary glucose excretion, mean change from baseline: 83.5 g/24 h
[2]; dapagliflozin 10 mg, increased from 1921.0 mL at baseline
  Mean 24-hour urine output on treatment: 2285.8 mL
[2]; dapagliflozin 20 mg
  Serum uric acid, median change from baseline: -0.30 mg/dL
  Glomerular filtration rate, change compared to baseline: 1.45 mL/min/1.73 m^2
  Serum hematocrit, median increase from baseline: 3.05%
  Urinary glucose excretion, mean change from baseline: 85.2 g/24 h
[2]; dapagliflozin 20 mg, increased from 1808.8 mL at baseline
  Mean 24-hour urine output on treatment: 2253.1 mL
[3]; 10 mg dapagliflozin arm
  Adverse events, % of patients: 75.0%
[3]; 10 mg dapagliflozin group
  Patients with genital tract infections: none
[3]; 10 mg dapagliflozin, patient on enalapril, carvedilol and furosemide, discontinued after eleven days, resolved with oral rehydration
  Events of pre-renal azotemia: One
[3]; 10 mg dapagliflozin
  Events of pollakiuria, patients: two
[3]; 20 mg dapagliflozin arm
  Adverse events, % of patients: 66.7%
[3]; 20 mg dapagliflozin group (n = 24)
  Patients who reported episodes of hypoglycemia: six
[3]; 20 mg dapagliflozin group
  Patients with genital tract infections: five
[3]; 20 mg dapagliflozin
  Events of pollakiuria, patients: three
[3]; dapagliflozin 10 mg arm
  Patients who reported polyuria: One
  Patients with adverse events that led to discontinuation: One
[3]; dapagliflozin 10 mg group (n = 24)
  Patients who reported episodes of hypoglycemia: seven
[3]; dapagliflozin 20 mg arm
  Cases of microalbuminuria (resulted in discontinuation from the study): One
  Patients who reported polyuria: One
  Patients with adverse events that led to discontinuation: One
[3]; dapagliflozin 20 mg group
  Patients who experienced a serious adverse event: one
  Patients who reported a urinary tract infection: One
[3]; major/minor episodes were balanced across all groups
  Total hypoglycemic events versus placebo, in words: more frequently reported with dapagliflozin treatment than with placebo
[3]; whole study
  Deaths, in words: no deaths
